Values after ≈ are worked out from the molar mass of the structure shown.
What was measured:
[1] = Thermal relaxation half life in PBS buffer; type: physicochemical
Histone deacetylase 2 = Histone deacetylase 2 (Homo sapiens, UniProt Q92769); test: Light-dependent inhibition of recombinant full length human HDAC2 expressed in baculovirus infected Sf9 insect cells preincubated for 1 hr in presence of LED light irradiation followed by substrate addition and measured for 30 mins by fluorescence method
Sequence of Histone deacetylase 2 (Q92769 whole entry): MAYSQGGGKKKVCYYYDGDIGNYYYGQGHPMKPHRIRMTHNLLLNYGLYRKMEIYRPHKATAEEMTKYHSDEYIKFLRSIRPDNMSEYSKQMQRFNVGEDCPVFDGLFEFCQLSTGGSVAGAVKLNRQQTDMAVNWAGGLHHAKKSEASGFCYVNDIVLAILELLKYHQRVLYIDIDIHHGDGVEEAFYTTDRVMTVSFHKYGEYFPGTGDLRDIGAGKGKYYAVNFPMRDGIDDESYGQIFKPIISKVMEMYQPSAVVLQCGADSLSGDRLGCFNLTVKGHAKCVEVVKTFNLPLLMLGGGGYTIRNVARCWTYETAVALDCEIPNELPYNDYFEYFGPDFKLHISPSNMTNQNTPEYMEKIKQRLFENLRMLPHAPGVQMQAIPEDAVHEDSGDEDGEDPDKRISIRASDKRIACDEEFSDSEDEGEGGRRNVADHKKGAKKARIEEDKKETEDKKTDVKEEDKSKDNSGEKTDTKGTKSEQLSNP

Escherichia coli [2] = test: Antibacterial activity against Quinolone-sensitive Escherichia coli CS1562 (tolC6:tn10) measured every 10 min for 12 hrs by broth dilution method; type: functional
Escherichia coli [3] = test: Antibacterial activity against Quinolone-sensitive Escherichia coli CS1562 (tolC6:tn10) using irradiated compound measured every 10 min for 12 hrs by broth dilution method; type: functional; details: light or radiation study
[4] = Half life of compound in water at 21x10^-6 M; type: physicochemical; details: dose 21 10^-6M
[5] = Half life in Dutch Belted rabbit retina at 30 uM, IVT measured after 24 to 336 hrs by LC-MS/MS analysis; type: ADME, tissue-based, Oryctolagus cuniculus; details: topical or ocular, time 24-336 hrs

For CN(C)c1ccc(/N=N\c2ccc(C(=O)Nc3cc(-c4cccs4)ccc3O)cc2)cc1, which t1/2 [1] is on record?
The t1/2 was 56 microsec.

What about the IC50 (Histone deacetylase 2) of the same molecule?
The IC50 was < 100 nM.

For CCn1cc(C(=O)O)c(=O)c2ccc(/N=N\c3ccc(OC)c(C)c3)cc21, which MIC (Escherichia coli [2]) is on record?
Its MIC is ≥ 64 µg/mL.

What about the MIC (Escherichia coli [3]) of the same molecule?
The MIC was 16 µg/mL (≈ 43.8 µM).

And the half-life at 21 µM [4]?
Its half-life at 21 µM is 0.0833 days.

With CCN(Cc1ccccc1)c1ccc(/N=N/c2ccc(NC(=O)C[N+](CC)(CC)CC)cc2)cc1 [KIO-301] as the molecule, how does the half-life at 30 µM [5] read?
The half-life at 30 µM was 24 days.

Reference: ChEMBL document CHEMBL4665681, “On the Promise of Photopharmacology Using Photoswitches: A Medicinal Chemist's Perspective” (J Med Chem, 2020)
